Laboratory results published in patent US7244713B2, “Nucleoside compounds for treating viral infections” (Genelabs Technologies, Inc., priority 2003, dated 2007).

What was measured:
[1] = test system: HCV replicon in ET (Huh-lucubineo-ET) cell line; test: Replicon assay (luciferase, ET cells); type: cell-based, hepatitis C virus
Experimental: A cell line, ET (Huh-lucubineo-ET) is used for screening of compounds of the present invention for HCV RNA dependent RNA polymerase. The ET cell line is stably transfected with RNA transcripts harboring a I389luc-ubi-neo/NS3-3′/ET; replicon with firefly luciferase-ubiquitin-neomycin phosphotransferase fusion protein and EMCV-IRES driven NS3-5B polyprotein containing the cell culture adaptive mutations (E1202G; T1280I; K1846T) (Krieger at al, 2001 and unpublished). The ET cells are grown in DMEM, supplemented with 10% fetal calf serum, 2 mM Glutamine, Penicillin (100 IU/mL)/Streptomycin (100 μg/mL), 1× nonessential amino acids, and 250 μg/mL G418 (“Geneticin”). They are all available through Life Technologies (Bethesda, Md.). The cells are plated at 0.5-1.0×10^4 cells/well in the 96 well plates and incubated for 24 hrs before adding nucleoside analogs. Then the compounds were added to the cells to achieve a final concentration of 50 or 100 μM, or whatever concentration is desired. For these determinations, 6 dilutions of each compound are used. Compounds are typically diluted 3 fold to span a concentration range of 250 fold. Luciferase activity will be measured 48-72 hours later by adding a lysis buffer and the substrate (Catalog number Glo-lysis buffer E2661 and Bright-Glo leuciferase system E2620 Promega, Madison, Wis.). Cells should not be too confluent during the assay. Percent inhibition of replication will be plotted relative to no compound control. Under the same condition, cytotoxicity of the compounds will be determined using cell proliferation reagent, WST-1 (Roche, Germany). IC50 and TC50 values are calculated by fitting % inhibition at each concentration to the following equation, where b is Hill's coefficient: % inhibition=100%/[(IC50/[I])^b+1]

HCV-NS5b = target: T1, HCV-NS5b (Hepatitis C virus genotype 1b, UniProt Q9WMX2); test: HCV-NS5b enzyme assay; type: biochemical
T1 construct: The cloned fragment is missing the C terminus 21 amino acid residues; (His)6 (C); made in house; host or cells: XL-1 cells (E. coli, IPTG-inducible plasmid)
Excerpt: The coding sequence of NS5b protein is cloned by PCR from pFKI389luc/NS3-3′/ET as described by Lohmann, V., et al. (1999) Science 285, 110-113 using the following primers: […]
The cloned fragment is missing the C terminus 21 amino acid residues. The cloned fragment is inserted into an IPTG-inducible expression plasmid that provides an epitope tag (His)6 at the carboxy terminus of the protein.
The recombinant enzyme is expressed in XL-1 cells and after induction of expression, the protein is purified using affinity chromatography on a nickel-NTA column. Storage condition is 10 mM Tris-HCl pH 7.5, 50 mM NaCl, 0.1 mM EDTA, 1 mM DTT, 20% glycerol at −20° C.
The polymerase activity is assayed by measuring incorporation of radiolabeled UTP into a RNA product using a biotinylated, heteropolymeric template, which includes a portion of the HCV genome. Typically, the assay mixture (50 μL) contains 10 mM Tris-HCl (pH 7.5), 5 mM MgCl2, 0.2 mM EDTA, 10 mM KCl, 1 unit/μL RNAsin, 1 mM DTT, 10 μM each of NTP, including [^3H]-UTP, and 10 ng/μL heteropolymeric template. Test compounds are initially dissolved in 100% DMSO and further diluted in aqueous buffer containing 5% DMSO. Typically, compounds are tested at concentrations between 1 nM and 100 μM. Reactions are started with addition of enzyme and allowed to continue at 37° C. for 2 hours. Reactions are quenched with 8 μL of 100 mM EDTA and reaction mixtures (30 μL) are transferred to streptavidin-coated scintillation proximity microtiter plates (FlashPlates) and incubated at 4° C. overnight. Incorporation of radioactivity is determined by scintillation counting.

[2] = currently recommended doses; cited from earlier work
HCV = conditions: treatment of HCV, long term efficacy; cited from earlier work

Molecule	inhibition at 50 µM ([1]; Hepatitis C virus, 50 μM) [%]	inhibition at 100 µM ([1]; Hepatitis C virus, 100 μM) [%]	further results
C[C@@]1(O)C(O)C(CO)OC1n1cc(C#CC(N)=O)c2c(N)ncnc21 (stereo in doubt) [Cmpd 105, 7-(2′-C-methyl-β-D-ribofuranosyl)-4-amino-5-(2-carboxamidoethyn-1-yl)-pyrrolo[2,3-d]pyrimidine]	69.6	89.1	
CCOC(C#Cc1cn(C2OC(CO)C(O)[C@@]2(C)O)c2ncnc(N)c12)OCC (stereo in doubt) [Cmpd 106, 7-(2′-C-methyl-β-D-ribofuranosyl)-4-amino-5-[(3,3-diethoxy)proparg-1-yl]-pyrrolo[2,3-d]pyrimidine]	95.5	95.6	
C[C@@]1(O)C(O)C(CO)OC1n1cc(C=NO)c2c(N)ncnc21 (stereo in doubt) [Cmpd 173, 7-(2′-C-methyl-β-D-ribofuranosyl)-4-amino-5-(carbaldehyde oxime)-pyrrolo[2,3-d]pyrimidine]	76.7	86.9	
C[C@@]1(O)C(O)C(CO)OC1n1cc(B(O)O)c2c(N)ncnc21 (stereo in doubt) [Cmpd 181, 7-(2′-C-methyl-β-D-ribofuranosyl)-4-amino-5-(boronic acid)-pyrrolo[2,3-d]pyrimidine]	98.2	98.1	
C[C@@]1(O)[C@H](O)[C@@H](CO)O[C@H]1n1cc(C#C[Si](C)(C)C)c2c(N)ncnc21 [Cmpd 101, 7-(2′-C-methyl-β-D-ribofuranosyl)-4-amino-5-(2′-trimethylsilylethyn-1-yl)-pyrrolo[2,3-d]pyrimidine]			inhibition at 50 µM ([1]; Hepatitis C virus): 98.1%; inhibition at 100 µM ([1]; Hepatitis C virus): 98.5%
C[C@@]1(O)[C@H](O)[C@@H](CO)O[C@H]1n1cc(C#CC(=O)O)c2c(N)ncnc21 [Cmpd 133, 7-(2′-C-methyl-β-D-ribofuranosyl)-4-amino-5-(2-carboxyethyn-1-yl)-pyrrolo[2,3-d]pyrimidine]	92.3	96.7	
CCOC(=O)C#Cc1cn([C@@H]2O[C@H](CO)[C@@H](O)[C@@]2(C)O)c2ncnc(N)c12 [Cmpd 137, 7-(2′-C-methyl-β-D-ribofuranosyl)-4-amino-5-[(ethyl 2-carboxyl)ethyn-1-yl]-pyrrolo[2,3-d]pyrimidine]	98.1	97.6	
C[C@@]1(O)[C@H](O)[C@@H](CO)O[C@H]1n1cc(C#Cc2ccccc2)c2c(N)ncnc21 [Cmpd 145, 7-(2′-C-methyl-β-D-ribofuranosyl)-4-amino-5-(2-phenylethyn-1-yl)-pyrrolo[2,3-d]pyrimidine]	90.7	91.8	
C[C@@]1(O)[C@H](O)[C@@H](COP(=O)(O)OP(=O)(O)OP(=O)(O)O)O[C@H]1n1cc(C#Cc2ccccc2)c2c(N)ncnc21 [Cmpd 154, 7-(2′-C-methyl-5′-triphospho-β-D-ribofuranosyl)-4-amino-5-(2-phenylethyn-1-yl)-pyrrolo[2,3-d]pyrimidine]			inhibition at 16.7 µM (HCV-NS5b; 16.7 μM, read-out: Enzyme, % inhibition @Con 2): 10.9%; inhibition at 50 µM (HCV-NS5b; 50 μM, read-out: Enzyme, % inhibition @Con 1): 19.2%
C=Cc1cn([C@@H]2O[C@H](CO)[C@@H](O)[C@@]2(C)O)c2ncnc(N)c12 [Cmpd 157, 7-(2′-C-methyl-β-D-ribofuranosyl)-4-amino-5-(ethen-1-yl)-pyrrolo[2,3-d]pyrimidine]	89	95	
CO/C=C\c1cn([C@@H]2O[C@H](CO)[C@@H](O)[C@@]2(C)O)c2ncnc(N)c12 [Cmpd 158, 7-(2′-C-methyl-β-D-ribofuranosyl)-4-amino-5-(2-cis-methoxy-ethen-1-yl)-pyrrolo[2,3-d]pyrimidine]		78.6	Replicon, % inhibition @100 μM ([1]; 100 μM): 62.4%
C[C@@]1(O)[C@H](O)[C@@H](CO)O[C@H]1n1cc(C=O)c2c(N)ncnc21 [Cmpd 165, 7-(2′-C-methyl-β-D-ribofuranosyl)-4-amino-5-(formyl)-pyrrolo[2,3-d]pyrimidine]			inhibition at 50 µM ([1]; Hepatitis C virus): 96.8%; inhibition at 100 µM ([1]; Hepatitis C virus): 95.9%
C[C@@]1(O)[C@H](O)[C@@H](COP(=O)(O)O)O[C@H]1n1cc(C=O)c2c(N)ncnc21 [Cmpd 166, 7-(2′-C-methyl-5′-phospho-β-D-ribofuranosyl)-4-amino-5-(formyl)-pyrrolo[2,3-d]pyrimidine]	97		inhibition at 16.7 µM ([1]; Hepatitis C virus, 16.7 μM, second test): 96.6%
C[C@@]1(O)[C@H](O)[C@@H](COP(=O)(O)OP(=O)(O)OP(=O)(O)O)O[C@H]1n1cc(C=O)c2c(N)ncnc21 [Cmpd 168, 7-(2′-C-methyl-5′-triphospho-β-D-ribofuranosyl)-4-amino-5-(formyl)-pyrrolo[2,3-d]pyrimidine]			inhibition at 7.7 µM (HCV-NS5b; 7.7 μM, read-out: Enzyme, % inhibition @Con 2): 92%; inhibition at 23.1 µM (HCV-NS5b; 23.1 μM, read-out: Enzyme, % inhibition @Con 1): 96%
C[C@@]1(O)C(O)C(CO)OC1n1cc(/C=N/N)c2c(N)ncnc21 (stereo partly drawn) [Cmpd 169, 7-(2′-C-methyl-β-D-ribofuranosyl)-4-amino-5-(hydrazono)-pyrrolo[2,3-d]pyrimidine]	80.7	89.6	
NC(=O)c1ncn([C@@H]2O[C@H](CO)[C@@H](O)[C@H]2O)n1 [Ribavirin, 1-β-D-ribofuranosyl-1H-1,2,-4-triazole-3-carboxamide]			patients with significant hemolysis [2]: 10-20%
interferon			response rate (HCV): about 25%
